Tests used:
hERG potassium channel = target: T1, hERG potassium channel (Homo sapiens, UniProt Q12809); test: hERG screening assay (PatchXpress patch clamp, CHO cells); type: cell-based; details: CHO cells expressing hERG
T1 construct: expressed in transfected cells; host or cells: CHO (Chinese Hamster Ovary)
Experimental: Compounds were screened to test their activity in blocking the hERG potassium channel. The hERG channel is heterologously expressed in a CHO (Chinese Hamster Ovary) cell line. Cells were maintained with standard tissue culture procedures and stable channel expression was maintained with 500 μg/ml G418 in the culture medium. Cells were harvested for testing on the PatchXpress automated patch clamp with Accumax (Innovative Cell Technologies, San Diego, Calif.) to isolate single cells.
The following solutions were used for electrophysiological recordings. The external solution contained: 2 mM CaCl2; 2 mM MgCl2; 4 mM KCl; 150 mM NaCl; 10 mM Glucose; 10 mM HEPES (pH 7.4 with 1M NaOH, osmolarity). The internal solution contained: 140 mM KCl, 10 mM MgCl2, 6 mM EGTA, 5 mM HEPES, 5 mM ATP (pH adjusted to 7.25 with KOH).
hERG channels were activated when the voltage was stepped to +20 mV from the −80 mV holding potential. During a 5 second step at +20 mV, the channels activated and then largely inactivated, so the currents were relatively small. Upon returning to −50 mV from +20 mV, hERG currents transiently became much larger as inactivation was rapidly removed and then the channel closed. The first step to −50 mV for 300 ms was used as a baseline for measuring the peak amplitude during the step to −50 mV after channel activation. The peak current at −50 mV was measured both under control conditions and after addition of compound.
All compounds were prepared as 10 mM DMSO stocks in glass vials. Stock solutions were mixed by vigorous vortexing and sonication for about 2 minutes at room temperature. For testing, compounds were diluted in glass vials using an intermediate dilution step in pure DMSO and then further diluted to working concentrations in external solution. Dilutions were prepared no longer than 20 minutes before use.
After achieving the whole-cell configuration, cells were monitored for 90 seconds to assess stability and washed with external solution for 66 seconds. The voltage protocol described above was then applied to the cells every 12 seconds and throughout the whole procedure. Only cells with stable recording parameters and meeting specified health criteria were allowed to enter the compound addition procedure.
External solution containing 0.1% DMSO (vehicle) was applied to the cells first to establish the control peak current amplitude. After allowing the current to stabilize for […], 1 μM and then 10 μM test compounds were applied. Each compound concentration was added 4 times and cells were kept in test solution until the effect of the compound reached steady state or for a maximum of 12 minutes. After addition of test compound, a positive control (1 μM Cisapride) was added, and must block >95% of the current for the experiment to be considered valid. Washout in the external solution compartment was performed until the recovery of the current reached steady state. Data was analyzed using DataXpress, Clampfit (Molecular Devices, Inc., Sunnyvale) and Origin 7 (Originlab Corp.)

[1] = target: T2, wild-type human cardiac sodium channel, hNav1.5 (Homo sapiens, UniProt Q14524); test: Late INa screening assay (PatchXpress whole cell patch clamp); type: cell-based; details: HEK293 hNav1.5
T2 construct: host or cells: HEK293
T2 sequence (Q14524 whole entry): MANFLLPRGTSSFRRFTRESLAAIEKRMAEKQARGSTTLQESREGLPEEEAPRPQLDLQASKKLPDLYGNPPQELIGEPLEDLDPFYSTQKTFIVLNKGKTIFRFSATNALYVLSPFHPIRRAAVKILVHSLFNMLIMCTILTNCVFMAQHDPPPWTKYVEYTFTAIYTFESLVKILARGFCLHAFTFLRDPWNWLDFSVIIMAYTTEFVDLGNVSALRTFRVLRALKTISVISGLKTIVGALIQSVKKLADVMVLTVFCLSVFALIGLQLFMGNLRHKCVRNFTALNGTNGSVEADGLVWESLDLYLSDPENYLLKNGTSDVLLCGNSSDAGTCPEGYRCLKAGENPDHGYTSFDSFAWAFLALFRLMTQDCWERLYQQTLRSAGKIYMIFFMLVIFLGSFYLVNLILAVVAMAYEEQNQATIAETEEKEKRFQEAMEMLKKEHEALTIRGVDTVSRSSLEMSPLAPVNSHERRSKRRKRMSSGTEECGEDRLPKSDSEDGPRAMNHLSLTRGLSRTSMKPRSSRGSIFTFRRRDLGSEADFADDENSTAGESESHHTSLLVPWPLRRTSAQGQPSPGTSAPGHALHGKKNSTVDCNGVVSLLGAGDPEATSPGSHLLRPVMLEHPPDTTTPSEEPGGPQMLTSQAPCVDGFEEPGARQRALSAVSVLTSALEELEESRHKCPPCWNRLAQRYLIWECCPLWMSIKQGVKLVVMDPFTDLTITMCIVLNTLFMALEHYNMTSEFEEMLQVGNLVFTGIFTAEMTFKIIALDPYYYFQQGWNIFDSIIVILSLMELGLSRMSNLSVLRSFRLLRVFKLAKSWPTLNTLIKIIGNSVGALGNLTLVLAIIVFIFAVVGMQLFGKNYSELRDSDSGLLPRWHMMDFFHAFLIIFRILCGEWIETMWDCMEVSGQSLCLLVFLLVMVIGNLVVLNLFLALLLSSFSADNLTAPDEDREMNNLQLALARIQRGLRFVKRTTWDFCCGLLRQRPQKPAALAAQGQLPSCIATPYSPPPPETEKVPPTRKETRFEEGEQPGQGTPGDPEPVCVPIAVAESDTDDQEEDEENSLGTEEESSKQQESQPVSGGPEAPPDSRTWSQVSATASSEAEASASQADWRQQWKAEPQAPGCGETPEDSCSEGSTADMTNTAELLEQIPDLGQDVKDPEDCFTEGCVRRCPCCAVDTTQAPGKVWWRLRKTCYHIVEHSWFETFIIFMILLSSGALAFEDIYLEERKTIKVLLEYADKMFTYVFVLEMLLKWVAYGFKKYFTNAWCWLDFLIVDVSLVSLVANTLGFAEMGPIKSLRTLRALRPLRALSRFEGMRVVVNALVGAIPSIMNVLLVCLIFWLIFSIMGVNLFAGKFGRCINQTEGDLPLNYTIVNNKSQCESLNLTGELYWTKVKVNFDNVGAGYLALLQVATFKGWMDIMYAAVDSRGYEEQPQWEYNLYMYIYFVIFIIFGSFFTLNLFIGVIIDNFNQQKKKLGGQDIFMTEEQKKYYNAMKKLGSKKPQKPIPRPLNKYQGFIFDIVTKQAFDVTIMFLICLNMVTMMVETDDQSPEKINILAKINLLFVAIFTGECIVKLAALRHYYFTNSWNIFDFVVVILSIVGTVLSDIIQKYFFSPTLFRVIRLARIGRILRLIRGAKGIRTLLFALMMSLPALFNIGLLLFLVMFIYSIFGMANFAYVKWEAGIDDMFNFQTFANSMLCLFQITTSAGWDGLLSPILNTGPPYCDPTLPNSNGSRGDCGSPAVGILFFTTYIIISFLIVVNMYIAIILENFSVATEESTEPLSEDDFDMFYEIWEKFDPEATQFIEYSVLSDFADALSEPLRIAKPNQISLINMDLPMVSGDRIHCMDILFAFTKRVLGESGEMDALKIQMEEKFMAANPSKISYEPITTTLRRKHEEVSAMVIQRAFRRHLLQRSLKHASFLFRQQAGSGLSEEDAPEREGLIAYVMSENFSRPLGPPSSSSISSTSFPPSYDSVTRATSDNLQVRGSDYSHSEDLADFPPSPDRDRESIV
Experimental: The late sodium current (Late INa) and peak sodium current (Peak INa) assays were performed on an automated electrophysiology platform, PatchXpress 7000A (MDS Analytical Technologies, Sunnyvale, Calif.), using the whole cell patch clamp technique to measure currents through the cell membrane of up to 16 cells at a time. The assay used an HEK293 (human embryonic kidney) cell line heterologously expressing the wild-type human cardiac sodium channel, hNav1.5, purchased from Millipore (Billerica, Mass.). No beta subunits were coexpressed with the Na channel alpha subunit. Cells were maintained with standard tissue culture procedures, and stable channel expression was maintained with 400 μg/ml Geneticin in the culture medium. Cells isolated for use on PatchXpress were incubated for 5 minutes in Versene 1× and then for 2 minutes in 0.0125% Trypsin-EDTA (both at 37° C.) to ensure that 80-90% of the cells are single and not part of a cell cluster. Experiments were carried out at 24-27° C.
For both the Late INa and Peak INa assays, series resistance compensation was set to 50% and whole-cell compensation was performed automatically. Currents were low-pass filtered at 10 kHz and digitized at 31.25 kHz. Currents through open sodium channels were automatically recorded and stored in the DataXpress2 database (MDS Analytical Technologies, Sunnyvale, Calif.). Analysis was performed using DataXpress2 analysis software and data are compiled in Excel.
Compound stocks were routinely made in glass vials to 10 mM in dimethyl sulfoxide (DMSO). In some cases, when compounds were not soluble in DMSO, they are made in 100% ethanol. Stocks were sonicated as necessary. The extracellular solution for screening Late INa was composed of: 140 mM NaCl, 4 mM KCl, 1.8 mM CaCl2, 0.75 mM MgCl2, and 5 mM HEPES with pH adjusted to 7.4 using NaOH. The extracellular solution for screening Peak INa was composed of: 20 mM NaCl, 120 mM N-methyl-D glucamine, 4 mM KCl, 1.8 mM CaCl2, 0.75 mM MgCl2, and 5 mM HEPES with pH adjusted to 7.4 using HCl. The intracellular solution used to perfuse the inside of the cells for both the Late INa and Peak INa assays contained: 120 mM CsF, 20 mM CsCl, 5 mM EGTA, 5 mM HEPES and pH adjusted to 7.4 with CsOH. Compounds were diluted in extracellular solution to […] in glass vials and then transferred to glass well plates before robotic addition to the cells. The 0Na extracellular solution used at the end of each experiment for the Late INa and Peak INa assays to measure baseline current contained: 140 mM N-methyl-D-glucamine; 4 mM KCl; 1.8 mM CaCl2; 0.75 mM MgCl2; 5 mM HEPES and pH was adjusted to 7.4 with HCl.
For the Late INa assay, sodium channels were activated every 10 seconds (0.1 Hz) by depolarizing the cell membrane to −20 mV for 250 milliseconds (ms) from a holding potential of −120 mV. In response to a −20 mV voltage step, typical Nav1.5 sodium currents activated rapidly to a peak negative current and then inactivated nearly completely within 3-4 ms.
All compounds were tested to determine their activity in blocking the late sodium current. Late INa current was generated by adding 10 μM Tefluthrin (pyrethroid) to the extracellular solution while recording Na currents. For some experiments, 50 nM ATX II (sea anemone toxin), another late INa activator, was used to generate the late component. Both activators generated late components that are large, and thus block of the late component by compounds could be measured easily. For the purposes of the screening, late INa is defined as the mean current between 225 ms and 250 ms after stepping to −20 mV to activate Na channels. After establishing the whole cell recording configuration, late INa activators were added to each well 4 times over a 16-17 minute period so that the late component of the Na current reached a stable value. Compounds were then added (typically at 10 μM), in the presence of late INa activator, with 3 additions over the course of 7 or 8 minutes. […]

T1 sequence (Q12809 whole entry): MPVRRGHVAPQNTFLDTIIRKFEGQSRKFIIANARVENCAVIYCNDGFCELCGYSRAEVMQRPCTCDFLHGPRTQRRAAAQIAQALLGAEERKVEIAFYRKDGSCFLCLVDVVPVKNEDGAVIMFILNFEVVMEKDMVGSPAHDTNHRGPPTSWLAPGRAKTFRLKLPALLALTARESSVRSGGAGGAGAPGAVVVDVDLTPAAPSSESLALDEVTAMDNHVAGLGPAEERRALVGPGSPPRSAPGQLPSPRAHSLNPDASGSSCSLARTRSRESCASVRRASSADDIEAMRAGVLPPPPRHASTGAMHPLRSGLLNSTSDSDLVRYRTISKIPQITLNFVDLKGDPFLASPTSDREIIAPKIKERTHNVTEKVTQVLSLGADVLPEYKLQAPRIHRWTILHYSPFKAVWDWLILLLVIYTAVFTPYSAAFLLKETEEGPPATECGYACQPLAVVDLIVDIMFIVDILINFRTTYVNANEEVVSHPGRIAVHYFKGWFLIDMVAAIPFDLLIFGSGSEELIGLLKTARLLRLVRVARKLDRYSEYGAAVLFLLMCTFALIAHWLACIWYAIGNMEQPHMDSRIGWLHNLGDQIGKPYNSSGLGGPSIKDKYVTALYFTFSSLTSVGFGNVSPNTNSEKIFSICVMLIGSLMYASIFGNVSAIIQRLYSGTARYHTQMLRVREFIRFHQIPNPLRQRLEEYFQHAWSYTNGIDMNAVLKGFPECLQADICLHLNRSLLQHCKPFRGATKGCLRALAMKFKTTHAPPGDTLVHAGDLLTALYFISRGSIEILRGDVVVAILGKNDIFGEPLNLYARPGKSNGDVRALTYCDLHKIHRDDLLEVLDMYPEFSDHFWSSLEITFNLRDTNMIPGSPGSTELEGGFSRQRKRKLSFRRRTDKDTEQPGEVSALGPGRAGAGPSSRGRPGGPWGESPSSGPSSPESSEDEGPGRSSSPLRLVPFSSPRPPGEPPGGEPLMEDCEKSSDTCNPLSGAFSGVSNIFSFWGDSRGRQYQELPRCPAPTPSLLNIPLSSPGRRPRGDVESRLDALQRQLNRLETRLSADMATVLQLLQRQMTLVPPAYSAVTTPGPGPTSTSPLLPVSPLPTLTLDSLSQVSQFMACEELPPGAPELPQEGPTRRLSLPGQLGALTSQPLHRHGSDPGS

Structure (SMILES): Cn1c(=O)c(C(C)(C)C)nc2ccc(-c3cccc(OC(F)(F)F)c3)cc21 [3-tert-butyl-1-methyl-7-[3-(trifluoromethoxy)phenyl] quinoxalin-2(1H)-one]
- HERG 1 uM (block of hERG current) (hERG potassium channel; compound at 1 uM): 10.0%
- HERG 10 uM (block of hERG current) (hERG potassium channel; compound at 10 uM): 10.0%
- Late INa 1 uM (percent block of late INa) ([1]; compound at 1 uM): 51.3%
- inhibition at 10 µM ([1]; compound at 10 uM, late INa generated with Tefluthrin or ATX II, read-out: Late INa 10 uM (percent block of late INa)): 77.5%

— patent US8912190B2, “Substituted heterocyclic compounds” (Gilead Sciences, Inc., priority 2008, dated 2014)
